Measured values: the supplement of paper PMC10883282

How the values were obtained:
Assay in all cases: standardised AUC of viability dose-response curve (72 h) (fraction (0-1)); higher = less growth inhibition (more resistant)
[1] = tested on: HT1080
Procedure, shortened: (§1)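 Sarcoma cell lines in 384-well plates were treated in triplicate for 72 h with 2.5 µl of a compound dilution series, made in 1:3 steps from 10 mM to 0.0002 mM on the compound plate. ATPLite viability was scaled from 1 (full) to 0 (none) and fitted per drug and cell line with a four-parameter log-logistic model. The values are standardised areas under the dose-response curve in log-dose space, from a modified drexplorer computeAUC. On that scale, 1 means no response and 0 means full response.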

[2] = tested on: RD-ES
Procedure, shortened: as §1

[3] = tested on: SW1353
Procedure, shortened: as §1

[4] = tested on: HS729
Procedure, shortened: as §1

[5] = tested on: SW872
Procedure, shortened: as §1

[6] = tested on: SK-ES-1
Procedure, shortened: as §1

[7] = tested on: MES-SA
Procedure, shortened: as §1

[8] = tested on: KHOS-NP
Procedure, shortened: as §1

[9] = tested on: G401
Procedure, shortened: as §1

[10] = tested on: SW982
Procedure, shortened: as §1

[11] = tested on: KHOS-240S
Procedure, shortened: as §1

[12] = tested on: VA-ES-BJ
Procedure, shortened: as §1

[13] = tested on: A204
Procedure, shortened: as §1

[14] = tested on: SYO-1
Procedure, shortened: as §1

[15] = tested on: SK-LMS-1
Procedure, shortened: as §1

[16] = tested on: SW684
Procedure, shortened: as §1

[17] = tested on: RD
Procedure, shortened: as §1

SMILES	standardised AUC [1]	standardised AUC [2]	standardised AUC [3]	standardised AUC [4]	standardised AUC [5]	standardised AUC [6]	standardised AUC [7]	standardised AUC [8]	standardised AUC [9]	standardised AUC [10]	standardised AUC [11]	standardised AUC [12]	standardised AUC [13]	standardised AUC [14]	standardised AUC [15]	standardised AUC [16]	standardised AUC [17]
C[C@@H]1COCCN1c1cc(-c2ccnn2C)c2ccnc(-c3ccn[nH]3)c2n1	0.686	0.673	0.791	0.782	0.706	0.637	0.641	0.826	0.819	0.615	0.603	0.626	0.689	0.606	0.751	0.828	0.75
O=C(Cc1ccc(-c2ccc(OCCN3CCOCC3)cc2)cn1)NCc1ccccc1 [KX2-391]	0.579	0.539	0.752	0.742	0.733	0.484	0.57	0.72	0.729	0.63	0.609	0.632	0.677	0.668	0.676	0.827	0.636
